Results from patent US11040031B2, “Pyrazole derivatives as MALT1 inhibitors” (Janssen Pharmaceutica NV, priority 2018, dated 2021).
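Also: fluorogenic LRSR-AMC substrate cleavage by MALT1, 50 min compound preincubation then 4 h reaction at RT, 11-point dilution from 30 µM, scaled between enzyme-free and untreated enzyme controls.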

These compounds were tested against T1, full-length MALT1 protein (Strep-MALT1(1-824)-His) (Homo sapiens, UniProt Q9UDY8) (assay: biochemical).
T1 sequence (Q9UDY8 1-824): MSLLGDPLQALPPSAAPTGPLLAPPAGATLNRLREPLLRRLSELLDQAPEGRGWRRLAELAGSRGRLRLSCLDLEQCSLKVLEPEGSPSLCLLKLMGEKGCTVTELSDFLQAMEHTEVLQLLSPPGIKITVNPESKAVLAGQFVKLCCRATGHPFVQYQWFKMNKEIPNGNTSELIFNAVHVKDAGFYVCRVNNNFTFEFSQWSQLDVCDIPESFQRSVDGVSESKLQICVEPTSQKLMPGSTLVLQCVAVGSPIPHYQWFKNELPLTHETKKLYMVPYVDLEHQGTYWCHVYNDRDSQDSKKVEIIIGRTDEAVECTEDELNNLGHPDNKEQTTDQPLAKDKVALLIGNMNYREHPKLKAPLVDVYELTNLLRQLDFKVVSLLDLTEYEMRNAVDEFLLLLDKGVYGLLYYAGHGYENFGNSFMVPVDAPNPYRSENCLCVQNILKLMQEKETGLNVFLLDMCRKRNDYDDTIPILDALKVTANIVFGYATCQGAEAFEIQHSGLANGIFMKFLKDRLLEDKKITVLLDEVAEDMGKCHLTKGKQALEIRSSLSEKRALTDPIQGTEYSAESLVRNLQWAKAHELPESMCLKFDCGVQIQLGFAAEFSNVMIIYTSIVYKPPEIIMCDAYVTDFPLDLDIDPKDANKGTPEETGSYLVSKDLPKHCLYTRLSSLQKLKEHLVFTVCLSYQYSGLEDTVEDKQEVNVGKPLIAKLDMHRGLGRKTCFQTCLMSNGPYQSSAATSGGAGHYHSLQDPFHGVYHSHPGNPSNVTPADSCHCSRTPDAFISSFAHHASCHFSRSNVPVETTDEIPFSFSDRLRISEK
Description: MALT1 protease activity was assessed in an in vitro assay using a tetrapeptide as substrate and full-length MALT1 protein (Strep-MALT1(1-824)-His) purified from baculovirus-infected insect cells. The tetrapeptide LRSR is coupled to AMC (7-amino-4-methylcoumarin) and provides a quenched, fluorescent substrate for the MALT1 protease (SM Biochemicals). Cleavage of AMC from the Arginine residue results in an increase in coumarin fluorescence measured at 460 nm (excitation 355 nm). […] Test compounds were spotted at 50 nL in 100% DMSO per well of a black 384-Proxiplate (Perkin Elmer). Test compound concentrations ranged from 30 μM to 0.5 nM using 11 dilution steps (1:3). Background signal was measured from control wells containing assay buffer without enzyme which functions as low control (LC). High control (HC) values were generated using the reaction with enzyme but no compound treatment. Compounds were pre-incubated with MALT1 enzyme for 50 minutes at RT. Substrate was added subsequently and fluorescence was measured in Labsystems fluoroskan at excitation 355 nm and emission 460 nm to determine time 0. The reaction was subsequently incubated for 4 h at RT and fluorescence was measured. […] The enzyme reaction was linear during the 4 h incubation period.
IC50 values were calculated using the following formula (Z prime should be >0.5):
From this an IC50 value (inhibitory concentration causing 50% inhibition) can be obtained. An estimate of the slope of the plot in terms of the Hill coefficient was also obtained.
With y=estimated response • UB=upper bound • LB=lower bound • h=hill
`Cc1ccnc(-n2ncc(C(=O)Nc3cnc(-n4nccn4)c(C#N)c3)c2C(F)(F)F)c1Cl` [Cpd 47, 1-(3-chloro-4-methylpyridin-2-yl)-N-(5-cyano-6-(2H-1,2,3-triazol-2-yl)pyridin-3-yl)-5-(trifluoromethyl)-1H-pyrazole-4-carboxamide] was tested, and the IC50 was 537 nM. With `COc1ccnc(-n2ncc(C(=O)Nc3cnc(-n4nccn4)c(Cl)c3)c2C(F)(F)F)c1Cl` [Cpd 65, 1-(3-chloro-4-methoxypyridin-2-yl)-N-(5-chloro-6-(2H-1,2,3-triazol-2-yl)pyridin-3-yl)-5-(trifluoromethyl)-1H-pyrazole-4-carboxamide] the IC50 was 5750 nM. `COc1ccnc(-n2ncc(C(=O)Nc3cnc(-n4nccn4)c(C#N)c3)c2C(F)(F)F)c1Cl` [Cpd 66, 1-(3-chloro-4-methoxypyridin-2-yl)-N-(5-cyano-6-(2H-1,2,3-triazol-2-yl)pyridin-3-yl)-5-(trifluoromethyl)-1H-pyrazole-4-carboxamide] showed an IC50 of 3980 nM. Compound `O=C(Nc1cnc(-n2nccn2)c(Cl)c1)c1cnn(-c2c(Cl)cncc2Cl)c1C(F)(F)F` [Cpd 67, N-(5-chloro-6-(2H-1,2,3-triazol-2-yl)pyridin-3-yl)-1-(3,5-dichloropyridin-4-yl)-5-(trifluoromethyl)-1H-pyrazole-4-carboxamide] has an IC50 of 525 nM. `Cc1c(F)ccc(-n2ncc(C(=O)Nc3cnc(-n4nccn4)c(Cl)c3)c2C(F)(F)F)c1Cl` [Cpd 71, 1-(2-chloro-4-fluoro-3-methylphenyl)-N-(5-chloro-6-(2H-1,2,3-triazol-2-yl)pyridin-3-yl)-5-(trifluoromethyl)-1H-pyrazole-4-carboxamide] gave an IC50 of 832 nM. For `Cc1c(F)ccc(-n2ncc(C(=O)Nc3cnc(-n4nccn4)c(C#N)c3)c2C(F)(F)F)c1Cl` [Cpd 72, 1-(2-chloro-4-fluoro-3-methylphenyl)-N-(5-cyano-6-(2H-1,2,3-triazol-2-yl)pyridin-3-yl)-5-(trifluoromethyl)-1H-pyrazole-4-carboxamide], the IC50 was 603 nM. For `CS(=O)(=O)c1cccc(-n2ncc(C(=O)Nc3cnc(-n4nccn4)c(Cl)c3)c2C(F)(F)F)c1` [Cpd 74, N-(5-chloro-6-(2H-1,2,3-triazol-2-yl)pyridin-3-yl)-1-(3-(methylsulfonyl)phenyl)-5-(trifluoromethyl)-1H-pyrazole-4-carboxamide], the IC50 was 2880 nM. Compound `Cc1cc(S(C)(=O)=O)ccc1-n1ncc(C(=O)Nc2cnc(-n3nccn3)c(Cl)c2)c1C(F)(F)F` [Cpd 75, N-(5-chloro-6-(2H-1,2,3-triazol-2-yl)pyridin-3-yl)-1-(2-methyl-4-(methylsulfonyl)phenyl)-5-(trifluoromethyl)-1H-pyrazole-4-carboxamide] has an IC50 of 1070 nM. `CC(C)c1ccccc1-n1ncc(C(=O)Nc2cnc(-n3nccn3)c(Cl)c2)c1C(F)(F)F` [Cpd 76, N-(5-chloro-6-(2H-1,2,3-triazol-2-yl)pyridin-3-yl)-1-(2-isopropylphenyl)-5-(trifluoromethyl)-1H-pyrazole-4-carboxamide] showed an IC50 of 676 nM. Work on `Cc1c(F)ccc(-n2ncc(C(=O)Nc3cnc(-n4nccn4)c(Cl)c3)c2C(F)(F)F)c1C` [Cpd 77, N-(5-chloro-6-(2H-1,2,3-triazol-2-yl)pyridin-3-yl)-1-(4-fluoro-2,3-dimethylphenyl)-5-(trifluoromethyl)-1H-pyrazole-4-carboxamide] yielded an IC50 of 891 nM. `O=C(Nc1cnc(-n2nccn2)c(Cl)c1)c1cnn(-c2ccc(F)c(F)c2)c1C(F)(F)F` [Cpd 78, N-(5-chloro-6-(2H-1,2,3-triazol-2-yl)pyridin-3-yl)-1-(3,4-difluorophenyl)-5-(trifluoromethyl)-1H-pyrazole-4-carboxamide] was tested, and the IC50 was 646 nM. For `O=C(Nc1cnc(-n2nccn2)c(Cl)c1)c1cnn(-c2cc(F)ccc2Cl)c1C(F)(F)F` [Cpd 79, 1-(2-chloro-5-fluorophenyl)-N-(5-chloro-6-(2H-1,2,3-triazol-2-yl)pyridin-3-yl)-5-(trifluoromethyl)-1H-pyrazole-4-carboxamide], the IC50 was 380 nM. `N#Cc1cc(NC(=O)c2cnn(-c3cc(F)ccc3Cl)c2C(F)(F)F)cnc1-n1nccn1` [Cpd 80, 1-(2-chloro-5-fluorophenyl)-N-(5-cyano-6-(2H-1,2,3-triazol-2-yl)pyridin-3-yl)-5-(trifluoromethyl)-1H-pyrazole-4-carboxamide] was tested, and the IC50 was 209 nM. Work on `N#Cc1cc(-n2ncc(C(=O)Nc3cnc(-n4nccn4)c(Cl)c3)c2C(F)(F)F)ccc1F` [Cpd 85, N-(5-chloro-6-(2H-1,2,3-triazol-2-yl)pyridin-3-yl)-1-(3-cyano-4-fluorophenyl)-5-(trifluoromethyl)-1H-pyrazole-4-carboxamide] yielded an IC50 of 2630 nM. With `N#Cc1cc(-n2ncc(C(=O)Nc3cnc(-n4nccn4)c(C#N)c3)c2C(F)(F)F)ccc1F` [Cpd 86, 1-(3-cyano-4-fluorophenyl)-N-(5-cyano-6-(2H-1,2,3-triazol-2-yl)pyridin-3-yl)-5-(trifluoromethyl)-1H-pyrazole-4-carboxamide] the IC50 was 1550 nM. For `Cc1cc(F)ncc1-n1ncc(C(=O)Nc2cnc(-n3nccn3)c(Cl)c2)c1C(F)(F)F` [Cpd 87, N-(5-chloro-6-(2H-1,2,3-triazol-2-yl)pyridin-3-yl)-1-(6-fluoro-4-methylpyridin-3-yl)-5-(trifluoromethyl)-1H-pyrazole-4-carboxamide], the IC50 was 724 nM. For `Cc1ncccc1-n1ncc(C(=O)Nc2cnc(-n3nccn3)c(C#N)c2)c1C(F)(F)F` [Cpd 88, N-(5-cyano-6-(2H-1,2,3-triazol-2-yl)pyridin-3-yl)-1-(2-methylpyridin-3-yl)-5-(trifluoromethyl)-1H-pyrazole-4-carboxamide], the IC50 was 794 nM. `O=C(Nc1cnc(-n2nccn2)c(Cl)c1)c1cnn(-c2ccc(F)c(F)c2F)c1C(F)(F)F` [Cpd 89, N-(5-chloro-6-(2H-1,2,3-triazol-2-yl)pyridin-3-yl)-5-(trifluoromethyl)-1-(2,3,4-trifluorophenyl)-1H-pyrazole-4-carboxamide] showed an IC50 of 646 nM. Compound `O=C(Nc1cnc(-n2nccn2)c(Cl)c1)c1cnn(-c2c(F)cccc2Cl)c1C(F)(F)F` [Cpd 90, N-(5-chloro-6-(2H-1,2,3-triazol-2-yl)pyridin-3-yl)-1-(2-chloro-6-fluorophenyl)-5-(trifluoromethyl)-1H-pyrazole-4-carboxamide] has an IC50 of 575 nM. Compound `Cc1ccncc1-n1ncc(C(=O)Nc2cnc(-n3nccn3)c(C#N)c2)c1C(F)(F)F` [Cpd 91, N-(5-cyano-6-(2H-1,2,3-triazol-2-yl)pyridin-3-yl)-1-(4-methylpyridin-3-yl)-5-(trifluoromethyl)-1H-pyrazole-4-carboxamide] has an IC50 of 513 nM. With `Cc1cccc(F)c1-n1ncc(C(=O)Nc2cnc(-n3nccn3)c(Cl)c2)c1C(F)(F)F` [Cpd 92, N-(5-chloro-6-(2H-1,2,3-triazol-2-yl)pyridin-3-yl)-1-(2-fluoro-6-methylphenyl)-5-(trifluoromethyl)-1H-pyrazole-4-carboxamide] the IC50 was 501 nM. Compound `O=C(Nc1cnc(-n2nccn2)c(Cl)c1)c1cnn(-c2c(Cl)cc(F)cc2Cl)c1C(F)(F)F` [Cpd 93, N-(5-chloro-6-(2H-1,2,3-triazol-2-yl)pyridin-3-yl)-1-(2,6-dichloro-4-fluorophenyl)-5-(trifluoromethyl)-1H-pyrazole-4-carboxamide] has an IC50 of 457 nM. `O=C(Nc1cnc(-n2nccn2)c(Cl)c1)c1cnn(-c2c(F)cc(F)cc2Cl)c1C(F)(F)F` [Cpd 94, 1-(2-chloro-4,6-difluorophenyl)-N-(5-chloro-6-(2H-1,2,3-triazol-2-yl)pyridin-3-yl)-5-(trifluoromethyl)-1H-pyrazole-4-carboxamide] showed an IC50 of 447 nM. Compound `Cc1nc(Cl)ccc1-n1ncc(C(=O)Nc2cnc(-n3nccn3)c(C#N)c2)c1C(F)(F)F` [Cpd 95, 1-(6-chloro-2-methylpyridin-3-yl)-N-(5-cyano-6-(2H-1,2,3-triazol-2-yl)pyridin-3-yl)-5-(trifluoromethyl)-1H-pyrazole-4-carboxamide] has an IC50 of 316 nM. `Cc1ccc(F)cc1-n1ncc(C(=O)Nc2cnc(-n3nccn3)c(Cl)c2)c1C(F)(F)F` [Cpd 96, N-(5-chloro-6-(2H-1,2,3-triazol-2-yl)pyridin-3-yl)-1-(5-fluoro-2-methylphenyl)-5-(trifluoromethyl)-1H-pyrazole-4-carboxamide] showed an IC50 of 316 nM. With `N#Cc1cc(NC(=O)c2cnn(-c3ccc(F)c(F)c3)c2C(F)(F)F)cnc1-n1nccn1` [Cpd 104, N-(5-cyano-6-(2H-1,2,3-triazol-2-yl)pyridin-3-yl)-1-(3,4-difluorophenyl)-5-(trifluoromethyl)-1H-pyrazole-4-carboxamide] the IC50 was 245 nM. For `O=C(Nc1cnc(-n2nccn2)c(Cl)c1)c1cnn(-c2ncc(F)cc2Cl)c1C(F)(F)F` [Cpd 105, 1-(3-chloro-5-fluoropyridin-2-yl)-N-(5-chloro-6-(2H-1,2,3-triazol-2-yl)pyridin-3-yl)-5-(trifluoromethyl)-1H-pyrazole-4-carboxamide], the IC50 was 537 nM. `O=C(Nc1cnc(-n2nccn2)c(Cl)c1)c1cnn(-c2ccc(F)c(Cl)c2)c1C(F)(F)F` [Cpd 108, 1-(3-chloro-4-fluorophenyl)-N-(5-chloro-6-(2H-1,2,3-triazol-2-yl)pyridin-3-yl)-5-(trifluoromethyl)-1H-pyrazole-4-carboxamide] showed an IC50 of 776 nM.
